Results as given in ChEMBL document CHEMBL1201862, “PubChem BioAssay data set” (2004).
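Compound exposure: 48 hours, 5 concentrations, 96-well plates. GI50 = concentration required for 50% inhibition of growth.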 Active and inactive are the calls of the source. No stated cut-off is given here; in the data, active = GI50 up to about 1.1 µM and inactive = higher.

Experiments:
Experiment in all cases: NCI anticancer screen, dose series, 48 h
[1] = test system: 786-0
[2] = test system: A498
[3] = test system: A549
[4] = test system: ACHN
[5] = test system: CAKI-1
[6] = test system: CCRF-CEM
[7] = test system: COLO 205
[8] = test system: DU-145
[9] = test system: EKVX
[10] = test system: HCC 2998
[11] = test system: HCT-116
[12] = test system: HCT-15
[13] = test system: HL-60
[14] = test system: HOP-62
[15] = test system: HOP-92
[16] = test system: HT-29
[17] = test system: Hs-578T
[18] = test system: IGROV-1
[19] = test system: K562
[20] = test system: KM12
[21] = test system: LOX IMVI
[22] = test system: M14
[23] = test system: MCF7
[24] = test system: MDA-MB-231
[25] = test system: MDA-MB-435
[26] = test system: MDA-N
[27] = test system: MOLT-4
[28] = test system: Malme-3M
[29] = test system: NCI-H226
[30] = test system: NCI-H23
[31] = test system: NCI-H460
[32] = test system: NCI-H522
[33] = test system: NCI/ADR-RES
[34] = test system: OVCAR-3
[35] = test system: OVCAR-4
[36] = test system: OVCAR-5
[37] = test system: OVCAR-8
[38] = test system: PC-3
[39] = test system: RPMI-8226
[40] = test system: RXF 393
[41] = test system: SF-268
[42] = test system: SF-295
[43] = test system: SF-539
[44] = test system: SK-MEL-28
[45] = test system: SK-MEL-2
[46] = test system: SK-MEL-5
[47] = test system: SK-OV-3
[48] = test system: SN12C
[49] = test system: SNB-19
[50] = test system: SNB-75
[51] = test system: SR
[52] = test system: SW-620
[53] = test system: T47D
[54] = test system: TK-10
[55] = test system: U-251
[56] = test system: UACC-257
[57] = test system: UACC-62
[58] = test system: BT-549
[59] = test system: UO-31

## Cc1nc(SCC(N)=O)c2sc(=S)n(-c3ccccc3)c2n1
[1]
  GI50: > 10 µM (inactive)
[2]
  GI50: > 10 µM (inactive)
[3]
  GI50: > 10 µM (inactive)
[4]
  GI50: > 10 µM (inactive)
[5]
  GI50: > 10 µM (inactive)
[6]
  GI50: > 10 µM (inactive)
[7]
  GI50: > 10 µM (inactive)
[8]
  GI50: > 10 µM (inactive)
[9]
  GI50: > 10 µM (inactive)
[10]
  GI50: > 10 µM (inactive)
[11]
  GI50: > 10 µM (inactive)
[12]
  GI50: > 10 µM
[13]
  GI50: > 10 µM (inactive)
[14]
  GI50: > 10 µM (inactive)
[15]
  GI50: > 10 µM (inactive)
[16]
  GI50: > 10 µM (inactive)
[17]
  GI50: > 10 µM (inactive)
[18]
  GI50: > 10 µM (inactive)
[19]
  GI50: > 10 µM (inactive)
[20]
  GI50: > 10 µM (inactive)
[21]
  GI50: > 10 µM (inactive)
[22]
  GI50: > 10 µM (inactive)
[23]
  GI50: > 10 µM (inactive)
[24]
  GI50: > 10 µM (inactive)
[25]
  GI50: > 10 µM (inactive)
[26]
  GI50: > 10 µM (inactive)
[27]
  GI50: > 10 µM (inactive)
[28]
  GI50: > 10 µM (inactive)
[29]
  GI50: > 10 µM (inactive)
[30]
  GI50: > 10 µM (inactive)
[31]
  GI50: > 10 µM (inactive)
[32]
  GI50: > 10 µM (inactive)
[33]
  GI50: > 10 µM (inactive)
[34]
  GI50: > 10 µM (inactive)
[35]
  GI50: > 10 µM (inactive)
[36]
  GI50: > 10 µM (inactive)
[37]
  GI50: > 10 µM (inactive)
[38]
  GI50: > 10 µM (inactive)
[39]
  GI50: > 10 µM (inactive)
[40]
  GI50: > 10 µM (inactive)
[41]
  GI50: > 10 µM (inactive)
[42]
  GI50: > 10 µM (inactive)
[43]
  GI50: > 10 µM (inactive)
[44]
  GI50: > 10 µM (inactive)
[45]
  GI50: > 10 µM (inactive)
[46]
  GI50: > 10 µM (inactive)
[47]
  GI50: > 10 µM (inactive)
[48]
  GI50: > 10 µM (inactive)
[49]
  GI50: > 10 µM (inactive)
[50]
  GI50: > 10 µM (inactive)
[51]
  GI50: > 10 µM (inactive)
[52]
  GI50: > 10 µM (inactive)
[53]
  GI50: > 10 µM (inactive)
[54]
  GI50: > 10 µM (inactive)
[55]
  GI50: > 10 µM (inactive)
[56]
  GI50: > 10 µM (inactive)
[57]
  GI50: > 10 µM (inactive)

## OC(CCN1CCCCC1)(c1ccccc1)c1ccccc1 [PRIDINOL]
[1]
  GI50: > 100 µM (inactive)
[2]
  GI50: > 100 µM (inactive)
[3]
  GI50: > 100 µM (inactive)
[4]
  GI50: > 100 µM (inactive)
[58]
  GI50: > 100 µM (inactive)
[5]
  GI50: > 100 µM (inactive)
[6]
  GI50: > 100 µM (inactive)
[7]
  GI50: > 100 µM (inactive)
[8]
  GI50: > 100 µM (inactive)
[9]
  GI50: 79.6 µM (inactive)
[11]
  GI50: > 100 µM (inactive)
[12]
  GI50: > 100 µM
[14]
  GI50: > 100 µM (inactive)
[15]
  GI50: 32.4 µM (inactive)
[16]
  GI50: 55 µM (inactive)
[18]
  GI50: > 100 µM (inactive)
[19]
  GI50: > 100 µM (inactive)
[20]
  GI50: > 100 µM (inactive)
[21]
  GI50: > 100 µM (inactive)
[22]
  GI50: > 100 µM (inactive)
[23]
  GI50: > 100 µM (inactive)
[24]
  GI50: > 100 µM (inactive)
[25]
  GI50: 82.8 µM (inactive)
[26]
  GI50: > 100 µM (inactive)
[27]
  GI50: > 100 µM (inactive)
[28]
  GI50: > 100 µM (inactive)
[30]
  GI50: > 100 µM (inactive)
[32]
  GI50: > 100 µM (inactive)
[33]
  GI50: > 100 µM (inactive)
[34]
  GI50: > 100 µM (inactive)
[36]
  GI50: > 100 µM (inactive)
[37]
  GI50: > 100 µM (inactive)
[38]
  GI50: > 100 µM (inactive)
[39]
  GI50: 87.1 µM (inactive)
[40]
  GI50: > 100 µM (inactive)
[41]
  GI50: > 100 µM (inactive)
[42]
  GI50: > 100 µM (inactive)
[44]
  GI50: > 100 µM (inactive)
[45]
  GI50: > 100 µM (inactive)
[46]
  GI50: 82.8 µM (inactive)
[47]
  GI50: > 100 µM (inactive)
[48]
  GI50: > 100 µM (inactive)
[49]
  GI50: > 100 µM (inactive)
[52]
  GI50: > 100 µM (inactive)
[53]
  GI50: > 100 µM (inactive)
[54]
  GI50: > 100 µM (inactive)
[55]
  GI50: > 100 µM (inactive)
[57]
  GI50: > 100 µM (inactive)
[59]
  GI50: 55.1 µM (inactive)

## Cn1ncc2c(NCc3ccccc3)ncnc21
[1]
  GI50: > 100 µM (inactive)
[2]
  GI50: > 100 µM (inactive)
[3]
  GI50: > 100 µM (inactive)
[4]
  GI50: > 100 µM (inactive)
[58]
  GI50: > 100 µM (inactive)
[5]
  GI50: > 100 µM (inactive)
[6]
  GI50: > 100 µM (inactive)
[7]
  GI50: > 100 µM (inactive)
[8]
  GI50: > 100 µM (inactive)
[9]
  GI50: > 100 µM (inactive)
[10]
  GI50: > 100 µM (inactive)
[11]
  GI50: > 100 µM (inactive)
[12]
  GI50: > 100 µM
[13]
  GI50: > 100 µM (inactive)
[14]
  GI50: > 100 µM (inactive)
[16]
  GI50: > 100 µM (inactive)
[18]
  GI50: > 100 µM (inactive)
[19]
  GI50: > 100 µM (inactive)
[20]
  GI50: > 100 µM (inactive)
[21]
  GI50: > 100 µM (inactive)
[23]
  GI50: > 100 µM (inactive)
[24]
  GI50: > 100 µM (inactive)
[25]
  GI50: > 100 µM (inactive)
[26]
  GI50: > 100 µM (inactive)
[27]
  GI50: > 100 µM (inactive)
[28]
  GI50: > 100 µM (inactive)
[29]
  GI50: > 100 µM (inactive)
[30]
  GI50: > 100 µM (inactive)
[31]
  GI50: > 100 µM (inactive)
[33]
  GI50: > 100 µM (inactive)
[34]
  GI50: > 100 µM (inactive)
[35]
  GI50: > 100 µM (inactive)
[36]
  GI50: > 100 µM (inactive)
[37]
  GI50: > 100 µM (inactive)
[39]
  GI50: > 100 µM (inactive)
[40]
  GI50: > 100 µM (inactive)
[41]
  GI50: > 100 µM (inactive)
[42]
  GI50: > 100 µM (inactive)
[43]
  GI50: > 100 µM (inactive)
[44]
  GI50: > 100 µM (inactive)
[46]
  GI50: > 100 µM (inactive)
[47]
  GI50: > 100 µM (inactive)
[48]
  GI50: > 100 µM (inactive)
[49]
  GI50: > 100 µM (inactive)
[50]
  GI50: 50.6 µM (inactive)
[51]
  GI50: > 100 µM (inactive)
[52]
  GI50: > 100 µM (inactive)
[53]
  GI50: > 100 µM (inactive)
[54]
  GI50: > 100 µM (inactive)
[55]
  GI50: > 100 µM (inactive)
[56]
  GI50: > 100 µM (inactive)
[57]
  GI50: > 100 µM (inactive)
[59]
  GI50: > 100 µM (inactive)
